Source: ChEMBL document CHEMBL1142780, “Phenylpyrroles, a new chemolibrary virtual screening class of 5-HT7 receptor ligands” (Bioorg Med Chem Lett, 2005)

Assays:
[1] = target: 5-hydroxytryptamine receptor 7 (Rattus norvegicus) (UniProt P32305); test: Inhibition of the binding of [3H]LSD on rat 5-HT7R expressed in HEK293 cells at concentration of 10e-6 M; type: cell-based
[2] = target: 5-hydroxytryptamine receptor 7 (Rattus norvegicus) (UniProt P32305); test: Inhibition of the binding of [3H]LSD on rat 5-HT7R expressed in HEK293 cells at concentration of 10e-8 M; type: cell-based
[3] = target: 5-hydroxytryptamine receptor 7 (Rattus norvegicus) (UniProt P32305); test: Inhibition of the binding of [3H]LSD on rat 5-HT7R in HEK293 cells at concentration of 10e-8 M; type: cell-based
[4] = target: 5-hydroxytryptamine receptor 7 (Rattus norvegicus) (UniProt P32305); test: Inhibition of the binding of [3H]LSD on rat 5-HT7R in HEK293 cells at concentration of 10e-6 M; type: cell-based
[5] = target: 5-hydroxytryptamine receptor 7 (Rattus norvegicus, UniProt P32305); test: Binding affinity against rat 5-HT7R expressed in HEK293 cells; type: cell-based
[6] = target: T1, 5-hydroxytryptamine receptor 7 (Homo sapiens, UniProt P34969)
Description: PKb value against Human 5-HT7 receptor

[7] = target: T2, 5-hydroxytryptamine receptor 1A (Rattus norvegicus, UniProt P19327); test: Binding affinity against rat 5-HT1A receptor
T2 sequence (P19327 whole entry): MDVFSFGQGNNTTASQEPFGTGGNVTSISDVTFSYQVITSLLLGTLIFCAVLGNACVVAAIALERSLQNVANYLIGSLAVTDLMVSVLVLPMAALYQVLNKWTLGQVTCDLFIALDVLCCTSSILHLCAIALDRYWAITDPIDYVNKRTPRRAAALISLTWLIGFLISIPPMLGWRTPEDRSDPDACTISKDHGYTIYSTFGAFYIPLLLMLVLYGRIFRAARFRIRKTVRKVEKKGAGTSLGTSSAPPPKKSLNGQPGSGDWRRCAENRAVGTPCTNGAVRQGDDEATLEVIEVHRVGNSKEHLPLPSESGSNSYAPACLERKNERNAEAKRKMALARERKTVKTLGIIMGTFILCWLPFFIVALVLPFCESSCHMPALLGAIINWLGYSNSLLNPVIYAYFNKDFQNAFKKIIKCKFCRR

[8] = target: T1, 5-hydroxytryptamine receptor 7; test: Binding affinity against Human 5-HT7R expressed in sf9 cells
[9] = target: 5-hydroxytryptamine receptor 6 (Homo sapiens) (UniProt P50406); test: Inhibition of the binding of [3H]LSD (radioligand) on human 5-HT6 receptor at concentration of 10e-8 M
[10] = target: 5-hydroxytryptamine receptor 6 (Homo sapiens) (UniProt P50406); test: Inhibition of the binding of [3H]LSD (radioligand) on human 5-HT6 receptor at concentration of 10e-6 M
[11] = target: T1, 5-hydroxytryptamine receptor 7; test: Inhibition of the binding of [3H]LSD on human 5-HT7R expressed in sf9 cells at concentration of 10e-6 M
[12] = target: T1, 5-hydroxytryptamine receptor 7; test: Inhibition of the binding of [3H]LSD on human 5-HT7R expressed in sf9 cells at concentration of 10e-8 M

T1 sequence (P34969 whole entry): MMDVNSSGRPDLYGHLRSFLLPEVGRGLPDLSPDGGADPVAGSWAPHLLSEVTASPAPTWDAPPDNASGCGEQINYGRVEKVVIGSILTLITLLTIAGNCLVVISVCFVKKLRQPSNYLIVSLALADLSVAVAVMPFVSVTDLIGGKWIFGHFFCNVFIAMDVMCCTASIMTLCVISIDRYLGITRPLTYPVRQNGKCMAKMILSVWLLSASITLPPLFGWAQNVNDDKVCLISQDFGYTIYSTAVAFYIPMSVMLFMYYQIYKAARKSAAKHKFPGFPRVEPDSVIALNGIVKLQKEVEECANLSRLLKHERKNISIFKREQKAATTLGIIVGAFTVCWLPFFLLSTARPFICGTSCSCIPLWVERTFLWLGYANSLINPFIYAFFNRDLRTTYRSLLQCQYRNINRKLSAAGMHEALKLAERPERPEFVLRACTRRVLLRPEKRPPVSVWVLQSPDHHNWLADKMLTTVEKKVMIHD
Sequence of 5-hydroxytryptamine receptor 7 (Rattus norvegicus, UniProt P32305) (P32305 whole entry): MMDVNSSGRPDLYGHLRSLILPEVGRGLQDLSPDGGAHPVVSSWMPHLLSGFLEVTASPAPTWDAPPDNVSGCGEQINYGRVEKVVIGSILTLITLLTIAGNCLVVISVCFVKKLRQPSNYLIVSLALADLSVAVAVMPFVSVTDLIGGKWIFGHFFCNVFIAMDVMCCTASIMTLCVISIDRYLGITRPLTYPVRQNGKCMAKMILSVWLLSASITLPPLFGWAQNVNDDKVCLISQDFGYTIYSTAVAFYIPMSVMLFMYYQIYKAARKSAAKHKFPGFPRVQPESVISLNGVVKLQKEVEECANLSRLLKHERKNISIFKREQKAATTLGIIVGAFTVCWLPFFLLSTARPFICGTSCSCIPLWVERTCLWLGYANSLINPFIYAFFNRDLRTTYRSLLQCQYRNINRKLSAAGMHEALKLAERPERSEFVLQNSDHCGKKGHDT
Sequence of 5-hydroxytryptamine receptor 7 (Rattus norvegicus) (P32305 whole entry): as above
Sequence of 5-hydroxytryptamine receptor 6 (Homo sapiens) (P50406 whole entry): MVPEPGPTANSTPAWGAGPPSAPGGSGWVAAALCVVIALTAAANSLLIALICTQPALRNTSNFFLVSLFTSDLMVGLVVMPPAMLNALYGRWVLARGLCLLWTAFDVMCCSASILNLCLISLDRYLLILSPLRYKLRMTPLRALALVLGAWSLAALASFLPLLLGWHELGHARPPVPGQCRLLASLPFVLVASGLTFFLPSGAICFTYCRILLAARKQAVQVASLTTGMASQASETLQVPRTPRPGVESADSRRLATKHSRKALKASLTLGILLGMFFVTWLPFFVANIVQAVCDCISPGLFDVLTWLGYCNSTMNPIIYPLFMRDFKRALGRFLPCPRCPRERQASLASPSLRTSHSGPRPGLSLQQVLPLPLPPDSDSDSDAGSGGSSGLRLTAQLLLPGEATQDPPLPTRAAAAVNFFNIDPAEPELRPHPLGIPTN

`COc1ccccc1N1CCN(Cc2cccn2-c2ccccc2C)CC1` gave an inhibition [1] of 63% and an inhibition [2] of 0%.

`Cc1ccccc1-n1ccc(CN2CCN(c3noc4ccccc34)CC2)c1` was tested, and the inhibition [3] was 9% and the inhibition [4] was 42%.

For `COc1ccccc1N1CCN(Cc2ccn(-c3cccc(C)c3C)c2)CC1`, the inhibition [3] was 0% and the inhibition [4] was 91%.

With `COc1ccccc1N1CCN(Cc2ccn(-c3cccc4ccccc34)c2)CC1` the inhibition [3] was 6% and the inhibition [4] was 86%.

`COc1ccccc1N1CCN(Cc2cccn2-c2ccccc2OC)CC1` was tested, and the inhibition [1] was 80% and the inhibition [2] was 16%.

Work on `COc1ccccc1N1CCN(Cc2ccn(-c3ccccc3C(F)(F)F)c2)CC1` yielded an inhibition [3] of 21%, a Ki [5] of 105 nM and an inhibition [4] of 91%.

Molecule `COc1ccccc1N1CCN(Cc2ccn(-c3c(C)cc(C)cc3C)c2)CC1` has an inhibition [3] of 0% and an inhibition [4] of 32%.

For `N#Cc1ccccc1-n1ccc(CN2CCN(c3noc4ccccc34)CC2)c1`, the inhibition [3] was 7% and the inhibition [4] was 34%.

Molecule `COC(=O)c1cccc(C)c1-n1ccc(CN2CCN(c3ccccc3OC)CC2)c1` has a PKb [6] of 7.66, a Ki [7] of 18.5 nM and a Ki [8] of 18 nM. For the same molecule, the inhibition [9] was 9% and the inhibition [10] was 20%.

For `COc1ccccc1N1CCN(Cc2cccn2-c2ccc(Cl)cc2Cl)CC1`, the inhibition [11] was 66% and the inhibition [12] was 0%.

For `N#Cc1ccccc1-n1cccc1CN1CCN(c2noc3ccccc23)CC1`, the inhibition [1] was 43% and the inhibition [2] was 1%.

In the case of `COc1ccccc1N1CCN(Cc2ccn(-c3ccccc3C)c2)CC1`, the inhibition [3] is reported as 22%, the Ki [7] is reported as 9.9 nM and the Ki [5] is reported as 21 nM. The inhibition [4] was 95%, the Ki [8] was 4.7 nM and the inhibition [9] was 7%. For the same molecule, the inhibition [10] was 9%.

Molecule `COc1ccccc1N1CCN(Cc2cccn2-c2ccccc2)CC1` has an inhibition [11] of 91% and an inhibition [12] of 0%.

In the case of `NCCc1cccn1-c1ccccc1Cl`, the inhibition [11] is reported as 58% and the inhibition [12] is reported as 0%.

Work on `COc1ccccc1N1CCN(Cc2cccn2-c2cccc(C)c2C)CC1` yielded an inhibition [1] of 68% and an inhibition [2] of 2%.

`Cc1cccc(-n2cccc2CCN)c1C` gave an inhibition [11] of 72% and an inhibition [12] of 0%.

`COc1ccc(OC)c(-n2cccc2CCN)c1` showed an inhibition [11] of 31% and an inhibition [12] of 6%.

For `COc1ccccc1-n1cccc1CN1CCN(C)CC1`, the inhibition [1] was 12% and the inhibition [2] was 0%.

`NCCc1cccn1-c1ccccc1` gave an inhibition [11] of 31% and an inhibition [12] of 0%.

For `COc1ccccc1N1CCN(Cc2ccn(-c3ccccc3OC)c2)CC1`, the inhibition [3] was 0% and the inhibition [4] was 6%.

`COc1ccccc1N1CCN(Cc2cccn2-c2ccccc2C(F)(F)F)CC1` gave an inhibition [1] of 38% and an inhibition [2] of 7%.

In the case of `COc1ccccc1N1CCN(Cc2cccn2-c2cccc3ccccc23)CC1`, the inhibition [1] is reported as 60% and the inhibition [2] is reported as 17%.

`COc1ccccc1N1CCN(Cc2ccn(-c3ccccc3C#N)c2)CC1` was tested, and the PKb [6] was 7.43, the inhibition [3] was 14% and the Ki [7] was 33.7 nM. It also gave a Ki [5] of 19 nM, an inhibition [4] of 96% and a Ki [8] of 5.4 nM. The inhibition [9] was 10% and the inhibition [10] was 12%.

`c1ccc(N2CCN(Cc3cccn3-c3ccccc3)CC2)cc1` was tested, and the inhibition [11] was 71% and the inhibition [12] was 14%.

`Cc1ccccc1-n1cccc1CN1CCN(c2noc3ccccc23)CC1` showed an inhibition [1] of 47% and an inhibition [2] of 0%.

`CCOc1ccc(OCC)c(-n2cccc2CCN)c1` gave an inhibition [11] of 14% and an inhibition [12] of 0%.

Work on `COc1ccccc1N1CCN(Cc2cccn2-c2ccccc2-c2ccccc2)CC1` yielded an inhibition [1] of 26% and an inhibition [2] of 0%.

With `Cc1cccc(-n2cccc2CN2CCN(C)CC2)c1C` the inhibition [1] was 33% and the inhibition [2] was 0%.

With `COc1ccc(-n2cccc2CCN)cc1` the inhibition [11] was 36% and the inhibition [12] was 3%.

`COc1ccccc1N1CCN(Cc2cccn2-c2ccccc2C#N)CC1` gave an inhibition [1] of 24% and an inhibition [2] of 0%.
